Converted amounts (≈) assume the structure as drawn. The source made the active and inactive calls. No cut-off for these calls is given here.
Assays:
[1] = test system: Escherichia coli BL21(DE3); test: Ratio of Vmax to Km for AAC(6')-APH(2'') in Escherichia coli BL21(DE3) assessed as production of free pyridine-4-thiolate relative to netilmicin
Klebsiella aerogenes = test: Antibacterial activity against gentamicin-resistant Enterobacter aerogenes clinical isolate after 18 hrs by agar dilution method; type: functional
Serratia marcescens [2] = test: Antibacterial activity against non-gentamicin-resistant Serratia marcescens clinical isolate after 18 hrs by agar dilution method; type: functional
Proteus mirabilis [3] = test: Antibacterial activity against non-gentamicin-resistant Proteus mirabilis clinical isolate assessed as susceptible isolates after 18 hrs by agar dilution method; type: functional
Escherichia coli [4] = test: Antibacterial activity against gentamicin-resistant Escherichia coli clinical isolate after 18 hrs by agar dilution method; type: functional
Klebsiella pneumoniae [5] = test: Antibacterial activity against gentamicin-resistant Klebsiella pneumoniae clinical isolate after 18 hrs by agar dilution method; type: functional
Providencia rettgeri = test: Antibacterial activity against gentamicin-resistant Proteus rettgeri clinical isolate after 18 hrs by agar dilution method; type: functional
Morganella morganii [6] = test: Antibacterial activity against non-gentamicin-resistant Morganella morganii clinical isolate after 18 hrs by agar dilution method; type: functional
Serratia marcescens [7] = test: Antibacterial activity against gentamicin-resistant Serratia marcescens clinical isolate assessed as susceptible isolates after 18 hrs by agar dilution method; type: functional
[8] = test system: Staphylococcus epidermidis; test: Antibacterial activity against non-gentamicin-resistant Staphylococcus epidermidis clinical isolate assessed as susceptible isolates after 18 hrs by agar dilution method; type: functional
Citrobacter freundii = test: Antibacterial activity against gentamicin-resistant Citrobacter freundii clinical isolate assessed as susceptible isolates after 18 hrs by agar dilution method; type: functional
Serratia marcescens [9] = test: Antibacterial activity against non-gentamicin-resistant Serratia marcescens clinical isolate assessed as susceptible isolates after 18 hrs by agar dilution method; type: functional
[10] = test system: Haemophilus parainfluenzae; test: Antibacterial activity against non-gentamicin-resistant Haemophilus parainfluenzae clinical isolate assessed as susceptible isolates after 18 hrs by agar dilution method; type: functional, organism-based
[11] = test system: Acinetobacter calcoaceticus; test: Antibacterial activity against gentamicin-resistant Acinetobacter calcoaceticus clinical isolate after 18 hrs by agar dilution method; type: functional
[12] = test system: Acinetobacter calcoaceticus; test: Antibacterial activity against gentamicin-resistant Acinetobacter calcoaceticus clinical isolate assessed as susceptible isolates after 18 hrs by agar dilution method; type: functional
[13] = test system: Escherichia coli BL21(DE3); test: Acetylation activity of AAC(6')-APH(2'') in Escherichia coli BL21(DE3) assessed as production of free pyridine-4-thiolate relative to netilmicin
[14] = test system: Staphylococcus epidermidis; test: Antibacterial activity against non-gentamicin-resistant Staphylococcus epidermidis clinical isolate after 18 hrs by agar dilution method; type: functional
Klebsiella pneumoniae [15] = test: Antibacterial activity against non-gentamicin-resistant Klebsiella pneumoniae clinical isolate after 18 hrs by agar dilution method; type: functional
Enterobacter cloacae = test: Antibacterial activity against non-gentamicin-resistant Enterobacter cloacae clinical isolate after 18 hrs by agar dilution method; type: functional
Morganella morganii [16] = test: Antibacterial activity against non-gentamicin-resistant Morganella morganii clinical isolate assessed as susceptible isolates after 18 hrs by agar dilution method; type: functional
Citrobacter koseri = test: Antibacterial activity against gentamicin-resistant Citrobacter diversus clinical isolate assessed as susceptible isolates after 18 hrs by agar dilution method; type: functional
Klebsiella pneumoniae [17] = test: Antibacterial activity against gentamicin-resistant Klebsiella pneumoniae clinical isolate assessed as susceptible isolates after 18 hrs by agar dilution method; type: functional
Klebsiella pneumoniae [18] = test: Antibacterial activity against non-gentamicin-resistant Klebsiella pneumoniae clinical isolate assessed as susceptible isolates after 18 hrs by agar dilution method; type: functional
Proteus mirabilis [19] = test: Antibacterial activity against non-gentamicin-resistant Proteus mirabilis clinical isolate after 18 hrs by agar dilution method; type: functional
[20] = test system: Escherichia coli BL21(DE3); test: Phosphorylation activity of AAC(6')-APH(2'') in Escherichia coli BL21(DE3) assessed as oxidation of NADH by pyruvate kinase relative to verdamicin
[21] = test system: Escherichia coli BL21(DE3); test: Ratio of Vmax to Km for AAC(6')-APH(2'') in Escherichia coli BL21(DE3) assessed as oxidation of NADH by pyruvate kinase relative to netilmicin
[22] = test system: Staphylococcus epidermidis; test: Bactericidal activity against Staphylococcus epidermidis isolate 01-55 at >=1 MIC up to 8 hrs by time-kill study; type: functional, organism-based
Escherichia coli [23] = test: Antibacterial activity against Escherichia coli ATCC 25922 at MIC up to 8 hrs by time-kill study; type: functional, organism-based
Klebsiella pneumoniae [24] = test: Antibacterial activity against Klebsiella pneumoniae isolate 01-21 at 1 MIC up to 8 hrs by time-kill study; type: functional, organism-based
Staphylococcus aureus [25] = test: Bactericidal activity against Staphylococcus aureus ATCC 29213 at >=1 MIC up to 8 hrs by time-kill study; type: functional, organism-based
Klebsiella pneumoniae [26] = test: Antibacterial activity against Klebsiella pneumoniae isolate 01-21 after 18 hrs by agar dilution method; type: functional
Staphylococcus aureus [27] = test: Antibacterial activity against Staphylococcus aureus ATCC 29213 after 18 hrs by agar dilution method; type: functional
[28] = test system: Staphylococcus epidermidis; test: Antibacterial activity against Staphylococcus epidermidis isolate 01-55 after 18 hrs by agar dilution method; type: functional

Compound | MIC50 (Klebsiella aerogenes) | MIC90 (Klebsiella aerogenes) | MIC50 (Serratia marcescens [2]) | MIC90 (Serratia marcescens [2]) | Activity (Proteus mirabilis [3]) | MIC50 (Escherichia coli [4]) | MIC90 (Escherichia coli [4]) | MIC50 (Klebsiella pneumoniae [5]) | MIC90 (Klebsiella pneumoniae [5]) | MIC50 (Providencia rettgeri) | MIC90 (Providencia rettgeri) | MIC90 (Morganella morganii [6]) | Activity (Serratia marcescens [7]) | Activity [8] | Activity (Citrobacter freundii) | Activity (Serratia marcescens [9]) | Activity [10] | MIC50 [11] | MIC90 [11] | Activity [12] | also measured
CN[C@@H]1[C@@H](O)[C@@H](O[C@@H]2[C@@H](O)[C@H](O[C@@H]3OC(C(C)N)=CC[C@@H]3N)[C@@H](N)C[C@H]2N)OC[C@]1(C)O (stereo partly drawn) [VERDAMICIN] | > 128 µg/mL | > 128 µg/mL | 0.25 µg/mL (≈ 0.542 µM) | 0.5 µg/mL (≈ 1.08 µM) | 100% | 32 µg/mL (≈ 69.3 µM) | 128 µg/mL (≈ 277 µM) | 128 µg/mL (≈ 277 µM) | > 128 µg/mL | 32 µg/mL (≈ 69.3 µM) | 128 µg/mL (≈ 277 µM) | 2 µg/mL (≈ 4.33 µM) | 10% | 75% | 26.3% | 96.3% | inactive | > 128 µg/mL | > 128 µg/mL | 16% | Vmax/Km [1]: 4.5%; MIC50 (Morganella morganii [6]): 1 µg/mL (≈ 2.17 µM); Vmax [13]: 9.6%; MIC50 [14]: 0.5 µg/mL (≈ 1.08 µM); MIC90 [14]: 32 µg/mL (≈ 69.3 µM); MIC50 (Klebsiella pneumoniae [15]): 0.25 µg/mL (≈ 0.542 µM); MIC90 (Klebsiella pneumoniae [15]): 0.5 µg/mL (≈ 1.08 µM); MIC (Enterobacter cloacae): 0.25 µg/mL (≈ 0.542 µM); MIC50 (Enterobacter cloacae): 0.25 µg/mL (≈ 0.542 µM); MIC90 (Enterobacter cloacae): 0.5 µg/mL (≈ 1.08 µM); Activity (Morganella morganii [16]): 100%; Activity (Citrobacter koseri): 0%; Activity (Klebsiella pneumoniae [17]): 10.7%; Activity (Klebsiella pneumoniae [18]): 98.8%; MIC50 (Proteus mirabilis [19]): 1 µg/mL (≈ 2.17 µM); MIC90 (Proteus mirabilis [19]): 2 µg/mL (≈ 4.33 µM)
NCC[C@H](O)C(=O)N[C@@H]1C[C@H](N)[C@@H](O[C@H]2O[C@H](CN)[C@@H](O)[C@H](O)[C@H]2O)[C@H](O)[C@H]1O[C@H]1O[C@H](CO)[C@@H](O)[C@H](N)[C@H]1O [AMIKACIN] | 16 µg/mL (≈ 27.3 µM) | 64 µg/mL (≈ 109 µM) | 1 µg/mL (≈ 1.71 µM) | 2 µg/mL (≈ 3.42 µM) | 100% | 1 µg/mL (≈ 1.71 µM) | 4 µg/mL (≈ 6.83 µM) | 1 µg/mL (≈ 1.71 µM) | > 128 µg/mL | 1 µg/mL (≈ 1.71 µM) | 32 µg/mL (≈ 54.6 µM) | 2 µg/mL (≈ 3.42 µM) | 30% | 98.8% | 31.6% | 96.3% | inactive | 16 µg/mL (≈ 27.3 µM) | > 128 µg/mL | 48% | MIC50 (Morganella morganii [6]): 1 µg/mL (≈ 1.71 µM); MIC50 [14]: 0.5 µg/mL (≈ 0.854 µM); MIC90 [14]: 2 µg/mL (≈ 3.42 µM); MIC50 (Klebsiella pneumoniae [15]): 1 µg/mL (≈ 1.71 µM); MIC90 (Klebsiella pneumoniae [15]): 1 µg/mL (≈ 1.71 µM); MIC50 (Enterobacter cloacae): 2 µg/mL (≈ 3.42 µM); MIC90 (Enterobacter cloacae): 4 µg/mL (≈ 6.83 µM); Activity (Morganella morganii [16]): 96%; Activity (Citrobacter koseri): 35.7%; Activity (Klebsiella pneumoniae [17]): 82.1%; Activity (Klebsiella pneumoniae [18]): 100%; MIC50 (Proteus mirabilis [19]): 2 µg/mL (≈ 3.42 µM); MIC90 (Proteus mirabilis [19]): 4 µg/mL (≈ 6.83 µM)
CCN[C@@H]1C[C@H](N)[C@@H](O[C@H]2OC(CN)=CC[C@H]2N)[C@H](O)[C@H]1O[C@H]1OC[C@](C)(O)[C@H](NC)[C@H]1O [NETILMICIN] | 32 µg/mL (≈ 67.3 µM) | 128 µg/mL (≈ 269 µM) | 1 µg/mL (≈ 2.1 µM) | 4 µg/mL (≈ 8.41 µM) | 98.4% | 8 µg/mL (≈ 16.8 µM) | 64 µg/mL (≈ 135 µM) | 32 µg/mL (≈ 67.3 µM) | > 128 µg/mL | 16 µg/mL (≈ 33.6 µM) | 128 µg/mL (≈ 269 µM) | 2 µg/mL (≈ 4.21 µM) | 10% | 100% | 47.4% | 96.3% | inactive | 128 µg/mL (≈ 269 µM) | > 128 µg/mL | 20% | Vmax [20]: 55%; Vmax/Km [21]: 7.4%; MIC50 (Morganella morganii [6]): 1 µg/mL (≈ 2.1 µM); MIC50 [14]: 0.25 µg/mL (≈ 0.526 µM); MIC90 [14]: 1 µg/mL (≈ 2.1 µM); MIC50 (Klebsiella pneumoniae [15]): 0.5 µg/mL (≈ 1.05 µM); MIC90 (Klebsiella pneumoniae [15]): 0.5 µg/mL (≈ 1.05 µM); MIC50 (Enterobacter cloacae): 0.5 µg/mL (≈ 1.05 µM); MIC90 (Enterobacter cloacae): 2 µg/mL (≈ 4.21 µM); Activity (Morganella morganii [16]): 100%; Activity (Citrobacter koseri): 7.1%; Activity (Klebsiella pneumoniae [17]): 17.9%; Activity (Klebsiella pneumoniae [18]): 94%; MIC50 (Proteus mirabilis [19]): 1 µg/mL (≈ 2.1 µM); MIC90 (Proteus mirabilis [19]): 2 µg/mL (≈ 4.21 µM)
GENTAMICIN | > 128 µg/mL | > 128 µg/mL | 0.25 µg/mL | 0.5 µg/mL | 96.8% | 64 µg/mL | > 128 µg/mL | 128 µg/mL | > 128 µg/mL | 64 µg/mL | 128 µg/mL | 8 µg/mL | 0% | 92.5% | 0% | 100% | inactive | > 128 µg/mL | > 128 µg/mL | 0% | Activity [22]: Dose-dependent effect; Activity (Escherichia coli [23]): Dose-dependent effect; Activity (Klebsiella pneumoniae [24]): Dose-dependent effect; Activity (Staphylococcus aureus [25]): Dose-dependent effect; MIC (Klebsiella pneumoniae [26]): 0.25 µg/mL; MIC50 [14]: 0.06 µg/mL; MIC90 [14]: 4 µg/mL; MIC50 (Klebsiella pneumoniae [15]): 0.25 µg/mL; MIC90 (Klebsiella pneumoniae [15]): 0.5 µg/mL; MIC50 (Enterobacter cloacae): 0.25 µg/mL; MIC90 (Enterobacter cloacae): 0.5 µg/mL; Activity (Morganella morganii [16]): 76%; Activity (Citrobacter koseri): 0%; Activity (Klebsiella pneumoniae [17]): 0%; MIC (Staphylococcus aureus [27]): 0.125 µg/mL; Activity (Klebsiella pneumoniae [18]): 100%; MIC [28]: 1 µg/mL; MIC50 (Proteus mirabilis [19]): 0.5 µg/mL; MIC90 (Proteus mirabilis [19]): 1 µg/mL

Reference: ChEMBL document CHEMBL1275533, “In vitro antibacterial activity of vertilmicin and its susceptibility to modifications by the recombinant AAC6'-APH2'' enzyme” (2008)
